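Interpolation was linear, between the two tested concentrations surrounding the appropriate level; five concentrations were tested over 48 hours in 96-well plates. GI50 = concentration required for 50% inhibition of growth. At the TGI there is no net growth.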
How the values were obtained:
Experiment in all cases: NCI-60 cell line screen, 48 h
[1] = tested on: A498 renal
[2] = tested on: COLO 205 colon
[3] = tested on: HT29 colon
[4] = tested on: IGROV1 ovarian
[5] = tested on: K-562 leukemia
[6] = tested on: NCI-H460 lung
[7] = tested on: SF-539 CNS
[8] = tested on: SW-620 colon
[9] = tested on: RPMI-8226 leukemia
[10] = tested on: MCF7 breast

Compound	TGI [1]	TGI [2]	TGI [3]	TGI [4]	TGI [5]	TGI [6]	TGI [7]	TGI [8]	TGI [9]	GI50 [1]	GI50 [2]	GI50 [3]	GI50 [4]	GI50 [5]	GI50 [6]	GI50 [9]	GI50 [7]	GI50 [8]	GI50 [10]	TGI [10]
O=c1ccnc2c1ccc1[nH]cccc12	> 100 µM	> 100 µM	> 100 µM	> 100 µM	> 100 µM	> 100 µM	> 100 µM	> 100 µM	–	–	–	–	–	–	–	–	–	–	–	–
CC(=O)N/C(=C\c1cccc([N+](=O)[O-])c1)c1nc2c3c(ccc2[nH]1)C(=O)c1ccccc1C3=O	> 100 µM	> 100 µM	> 100 µM	> 100 µM	> 100 µM	> 100 µM	> 100 µM	> 100 µM	> 100 µM	–	–	–	–	–	–	–	–	–	–	–
CC1(C)CCC[C@@]2(C)C1CC[C@H]1CC(O)C3(C)CCC12C3 (some centres undefined)	–	–	32.1 µM	50.6 µM	> 100 µM	32.8 µM	33 µM	30.8 µM	72.6 µM	–	–	–	–	–	–	–	–	–	–	–
Cn1nc(-c2ccccc2)nc1[N+](=O)[O-]	> 10 µM	> 10 µM	> 10 µM	> 10 µM	> 10 µM	> 10 µM	> 10 µM	> 10 µM	> 10 µM	–	–	–	–	–	–	–	–	–	–	–
CC(=O)Nc1c(C)ccc2c1C(=O)c1ccccc1C2=O	> 100 µM	> 100 µM	> 100 µM	> 100 µM	> 100 µM	> 100 µM	> 100 µM	> 100 µM	> 100 µM	–	–	–	–	–	–	–	–	–	–	–
CC(=O)/C(=C\C1=CCCO1)C(=O)Nc1ccccc1C	–	–	> 100 µM	> 100 µM	> 100 µM	> 100 µM	> 100 µM	> 100 µM	> 100 µM	–	–	–	–	–	–	–	–	–	–	–
Cc1ccc(/C=C/C(=O)c2sc(-c3cccnc3)nc2C)cc1	> 100 µM	> 100 µM	> 100 µM	> 100 µM	> 100 µM	> 100 µM	> 100 µM	> 100 µM	> 100 µM	–	–	–	–	–	–	–	–	–	–	–
O=C([CH-]C(=O)c1ccccc1)c1ccccc1.O=C([CH-]C(=O)c1ccccc1)c1ccccc1.O=C([CH-]C(=O)c1ccccc1)c1ccccc1.[OH3+].[Y+3]	43.1 µM	30.9 µM	17.1 µM	62.4 µM	17.8 µM	34.6 µM	43.1 µM	22.8 µM	32.2 µM	16.3 µM	13.2 µM	4.09 µM	13.6 µM	3.6 µM	4.29 µM	6.04 µM	9.27 µM	5.14 µM	–	–
O=C1NC2CCC(C2)C1c1ccccc1 (centres undefined)	> 100 µM	> 100 µM	> 100 µM	> 100 µM	> 100 µM	> 100 µM	> 100 µM	> 100 µM	> 100 µM	–	–	–	–	–	–	–	–	–	–	–
CC[O-].CC[O-].O=C1C(c2ccccc2)=C([O-])c2ccccc21.O=C1C(c2ccccc2)=C([O-])c2ccccc21.[Ti+4]	–	> 100 µM	> 100 µM	> 100 µM	–	> 100 µM	> 100 µM	> 100 µM	99.5 µM	–	> 100 µM	> 100 µM	> 100 µM	–	> 100 µM	30.3 µM	> 100 µM	> 100 µM	–	–
COc1ccc(C(=O)OC2C=COC(C)C2OC(=O)c2ccc(OC)cc2)cc1 (centres undefined)	> 100 µM	> 100 µM	62.4 µM	> 83.6 µM	63.9 µM	> 100 µM	33.6 µM	35.1 µM	47.2 µM	–	–	–	–	–	–	–	–	–	–	–
CC/C(=C(/CC)c1ccc(O)cc1)c1ccc([O-])cc1.CC/C(=C(/CC)c1ccc(O)cc1)c1ccc([O-])cc1.O=C([CH-]C(=O)c1ccccc1)c1ccccc1.O=C([CH-]C(=O)c1ccccc1)c1ccccc1.[Ti+4]	–	> 100 µM	32 µM	37.7 µM	> 100 µM	25.8 µM	–	19.1 µM	> 100 µM	–	33.8 µM	18.1 µM	16.1 µM	3.51 µM	13.1 µM	30.5 µM	–	6.35 µM	–	–
CCCC(C)C[C@@H](C)CC(C)/C=C(\C)c1oc(=O)c(C)c(O)c1C (some centres undefined) (tested in a mixture with another compound)	–	46 µM	27.6 µM	–	–	25.1 µM	30.1 µM	35.1 µM	–	–	–	–	–	–	–	–	–	–	–	–
O=C(Nc1ccc(F)cc1)C(=O)C(C1OC(=O)c2ccccc21)[N+](=O)[O-] (centres undefined)	> 100 µM	> 100 µM	> 100 µM	> 100 µM	> 100 µM	> 100 µM	> 100 µM	> 100 µM	> 100 µM	–	–	–	–	–	–	–	–	–	–	–
COc1ccc(-c2ccc(/C=N/n3c(COc4ccc(Cl)cc4Cl)nn(CN4CCN(C)CC4)c3=S)o2)c([N+](=O)[O-])c1	5.1 µM	> 100 µM	> 100 µM	> 100 µM	> 100 µM	45.1 µM	–	–	50 µM	2.28 µM	29.3 µM	41.2 µM	45 µM	22.2 µM	15 µM	9.37 µM	–	–	10 µM	29.8 µM
CCOC(=O)C1=C(Nc2ccc(Cl)cc2Cl)OC/C1=N\NS(=O)(=O)c1ccc(C)cc1	> 100 µM	> 100 µM	> 100 µM	> 100 µM	> 100 µM	> 100 µM	> 100 µM	> 100 µM	–	–	–	–	–	–	–	–	–	–	–	–
O=c1[nH]c2c3ccccc3ccc2c2cc3c(cc12)OCO3	–	> 100 µM	> 100 µM	> 100 µM	> 100 µM	> 100 µM	> 100 µM	> 100 µM	> 100 µM	–	–	–	–	–	–	–	–	–	–	–
Cc1ccc(NC(=O)CC(=O)n2nc(-c3ccccc3)c(N=Nc3ccccc3Cl)c2-c2ccccc2)cc1	> 100 µM	> 100 µM	> 100 µM	> 100 µM	> 100 µM	> 100 µM	> 100 µM	> 100 µM	> 100 µM	–	> 100 µM	> 100 µM	> 100 µM	–	–	> 100 µM	–	–	–	–
NC1CCCCC1N.O=S(=O)([O-])CCCN1CCOCC1.O=S(=O)([O-])CCCN1CCOCC1.[Pt+4]	> 100 µM	42.8 µM	> 100 µM	> 100 µM	30.5 µM	> 100 µM	> 100 µM	17.1 µM	> 51.4 µM	49 µM	10.7 µM	12.8 µM	18.1 µM	7.29 µM	3.54 µM	1.05 µM	27.5 µM	1.32 µM	–	–
